Reference: patent US20170334899A1, “AMINO-SUBSTITUTED ISOTHIAZOLES” (Bayer Pharma Aktiengesellschaft, priority 2014, published 2017)
“And” between values parts separate entries of the source, which are not always exact repeats. Identical values can stand only once.

Target: T1, catalytic domain of human Bub1 (amino acids 704-1085) (Homo sapiens, UniProt O43683)
T1 construct: catalytic domain of human Bub1 (amino acids 704-1085); His6 (N); made in house; host or cells: insect cells (Hi5)
Experiment: Bub1 kinase assay (TR-FRET)
Assay type: biochemical
Details: 10 μM ATP, avg, read-out: Bub1 avg (IC50 [mol/l])
Excerpt: Bub1-inhibitory activity of compounds of the present invention was quantified employing the Bub1 TR-FRET assay as described in the following paragraphs.
N-terminally His6-tagged recombinant catalytic domain of human Bub1 (amino acids 704-1085), expressed in insect cells (Hi5) and purified by Ni-NTA affinity chromatography and subsequent size exclusion chromatography, was used as enzyme. As substrate for the kinase reaction the biotinylated peptide biotin-Ahx-VLLPKKSFAEPG (C-terminus in amid form) was used which can be purchased e.g. form the company Biosyntan (Berlin, Germany).
For the assay 50 nl of a 100fold concentrated solution of the test compound in DMSO was pipetted into a black low volume 384well microtiter plate (Greiner Bio-One, Frickenhausen, Germany), 2 μl of a solution of Bub1 in aqueous assay buffer [50 mM Tris/HCl pH 7.5, 10 mM magnesium chloride (MgCl2), 200 mM potassium chloride (KCl), 1.0 mM dithiothreitol (DTT), 0.1 mM sodium ortho-vanadate, 1% (v/v) glycerol, 0.01% (w/v) bovine serum albumine (BSA), 0.005% (v/v) Trition X-100 (Sigma), 1× Complete EDTA-free protease inhibitor mixture (Roche)] were added and the mixture was incubated for 15 min at 22° C. to allow pre-binding of the test compounds to the enzyme before the start of the kinase reaction. Then the kinase reaction was started by the addition of 3 μl of a solution of adenosine-tri-phosphate (ATP, 16.7 μM=>final conc. in the 5 μl assay volume is 10 μM) and substrate (1.67 μM=>final conc. in the 5 μl assay volume is 1 μM) in assay buffer and the resulting mixture was incubated for a reaction time of 60 min at 22° C. The concentration of Bub1 was adjusted depending of the activity of the enzyme lot and was chosen appropriate to have the assay in the linear range, typical concentrations were in the range of 200 ng/ml. The reaction was stopped by the addition of 5 μl of a solution of TR-FRET detection reagents (0.2 μM streptavidine-XL665 [Cisbio Bioassays, Codolet, France] and 1 nM anti-phosho-Serine antibody [Merck Millipore, cat. #35-001] and 0.4 nM LANCE EU-W1024 labeled anti-mouse IgG antibody [Perkin-Elmer, product no. AD0077, as an alternative a Terbium-cryptate-labeled anti-mouse IgG antibody from Cisbio Bioassays can be used]) in an aqueous EDTA-solution (50 mM EDTA, 0.2% (w/v) bovine serum albumin in 100 mM HEPES pH 7.5).
The resulting mixture was incubated 1 h at 22° C. to allow the formation of complex between the phosphorylated biotinylated peptide and the detection reagents. Subsequently the amount of phosphorylated substrate was evaluated by measurement of the resonance energy transfer from the Eu-chelate to the streptavidine-XL. Therefore, the fluorescence emissions at 620 nm and 665 nm after excitation at 350 nm was measured in a TR-FRET reader, e.g. a Rubystar or Pherastar (both from BMG Labtechnologies, Offenburg, Germany) or a Viewlux (Perkin-Elmer). The ratio of the emissions at 665 nm and at […] was taken as the measure for the amount of phosphorylated substrate. The data were normalised (enzyme reaction without inhibitor=0% inhibition, all other assay components but no enzyme=100% inhibition).

T1 sequence (O43683 704-1085): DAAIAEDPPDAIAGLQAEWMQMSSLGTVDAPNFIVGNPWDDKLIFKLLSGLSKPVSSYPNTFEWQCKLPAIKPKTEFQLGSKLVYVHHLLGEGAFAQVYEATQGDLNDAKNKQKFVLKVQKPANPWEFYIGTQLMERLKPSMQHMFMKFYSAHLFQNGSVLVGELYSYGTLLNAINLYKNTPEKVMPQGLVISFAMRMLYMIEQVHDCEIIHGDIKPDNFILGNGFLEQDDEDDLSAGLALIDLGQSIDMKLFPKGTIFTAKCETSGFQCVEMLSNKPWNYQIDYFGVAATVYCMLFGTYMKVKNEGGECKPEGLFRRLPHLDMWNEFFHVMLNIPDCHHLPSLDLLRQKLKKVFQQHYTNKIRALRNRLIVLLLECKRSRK

Row | IC50 | SMILES
1 | 14 µM | Cc1nsc(Nc2cnc(C(F)(F)F)cn2)c1C(=O)Nc1ccc(C(=O)NCCN2CCCC(F)(F)C2)cc1 [Example 153, N-(4-{[2-(3,3-difluoropiperidin-1-yl)ethyl]carbamoyl}phenyl)-3-methyl-5-{[5-(trifluoromethyl)pyrazin-2-yl]amino}-1,2-thiazole-4-carboxamide]
2 | ≥ 20 µM | Cc1nsc(Nc2cnc(C(F)(F)F)cn2)c1C(=O)Nc1ccc(OC[C@@H]2CCN(CC(F)F)C2)nc1 [Example 127, N-(6-{[(3R)-1-(2,2-difluoroethyl)pyrrolidin-3-yl]methoxy}pyridin-3-yl)-3-methyl-5-{[5-(trifluoromethyl)pyrazin-2-yl]amino}-1,2-thiazole-4-carboxamide]
3 | > 20 µM | Cc1nsc(Nc2ccc(C#N)cn2)c1C(=O)Nc1ccc(NC2CCCN(C(=O)OC(C)(C)C)C2)nc1 (stereo not drawn) [Example 171, tert-butyt 3-({5-[({5-[(5-cyanopyridin-2-yl)amino]-3-methyl-1,2-thiazol-4-yl}carbonyl)amino]pyridin-2-yl}amino)piperidine-1-carboxylate]
4 | > 20 µM | Cc1nsc(Nc2cnc3ccccc3n2)c1C(=O)Nc1ccc(C(=O)N2CCCN(CC(F)(F)F)CC2)cc1 [Example 159]
5 | ≥ 20 µM | Cc1nsc(Nc2cnc(C(F)(F)F)cn2)c1C(=O)Nc1ccc(O[C@@H]2CCN(CCC(F)(F)F)C2)nc1 [Example 423, 3-Methyl-5-{[5-(trifluoromethyl)pyrazin-2-yl]amino}-N-(6-{[(3R)-1-(3,3,3-trifluoropropyl)pyrrolidin-3-yl]oxy}pyridin-3-yl)-1,2-thiazole-4-carboxamide]
6 | > 20 µM | Cc1nsc(Nc2cnc(C(F)(F)F)cn2)c1C(=O)Nc1ccc(OC[C@H]2CCN(CCC(F)(F)F)C2)nc1 [Example 134, 3-Methyl-5-{[5-(trifluoromethyl)pyrazin-2-yl]amino}-N-(6-{[(3S)-1-(3,3,3-trifluoropropyl)pyrrolidin-3-yl]methoxy}pyridin-3-yl)-1,2-thiazole-4-carboxamide]
7 | > 20 µM | Cc1nsc(Nc2cnc(C(F)(F)F)cn2)c1C(=O)Nc1ccc(OC[C@H]2CCN(CC(F)(F)F)C2)nc1 (racemic) [Example 133, 3-Methyl-N-(6-{[(SR)-1-(2,2,2-trifluoroethyl)pyrrolidin-3-yl]methoxy}pyridin-3-yl)-5-{[5-(trifluoromethyl)pyrazin-2-yl]amino}-1,2-thiazole-4-carboxamide]
8 | 9 µM | COC(=O)CNC(=O)c1cccc(NC(=O)c2c(C)nsc2Nc2cnc3ccccc3n2)c1 [Example 100, Methyl N-[3-({[3-methyl-5-(quinoxalin-2-ylamino)-1,2-thiazol-4-yl]carbonyl}amino)-benzoyl]glycinate]
9 | ≥ 20 µM | Cc1nsc(Nc2cnc(C(F)(F)F)cn2)c1C(=O)Nc1ccc(OCC2CCN(CCF)C2)nc1 (stereo not drawn) [Example 121, N-(6-{[1-(2-fluoroethyl)pyrrolidin-3-yl]methoxy}pyridin-3-yl)-3-methyl-5-{[5-(trifluoromethyl)pyrazin-2-yl]amino}-1,2-thiazole-4-carboxamide]
10 | > 20 µM and 18 µM | Cc1nsc(Nc2cnc3ccccc3n2)c1C(=O)Nc1ccc(NC2CC2)nc1 [Example 172, N-[6-(cyclopropylamino)pyridin-3-yl]-3-methyl-5-(quinoxalin-2-ylamino)-1,2-thiazole-4-carboxamide]
11 | > 20 µM | Cc1nsc(Nc2ccc(C#N)cn2)c1C(=O)Nc1cccc(S(C)(=O)=O)c1 [Example 150, 5-[(5-cyanopyridin-2-yl)amino]-3-methyl-N-[3-(methylsulfonyl)phenyl]-1,2-thiazole-4-carboxamide]
12 | 2.7 µM | Cc1nsc(Nc2cnc3ccccc3n2)c1C(=O)Nc1cccc(C(=O)NCC(=O)O)c1 [Example 99, N-[3-({[3-Methyl-5-(quinoxalin-2-ylamino)-1,2-thiazol-4-yl]carbonyl}amino)benzoy]-glycine]
13 | 19 µM and > 20 µM | Cc1nsc(Nc2cnc3ccccc3n2)c1C(=O)Nc1ccc(C(=O)NCCN2CCCC(F)(F)C2)cc1 [Example 156, N-(4-{[2-(3,3-difluoropiperidin-1-yl)ethyl]carbamoyl}phenyl)-3-methyl-5-(quinoxalin-2-ylamino)-1,2-thiazole-4-carboxamide]
14 | > 20 µM | Cc1nsc(Nc2ccc(C#N)cn2)c1C(=O)Nc1ccc(N[C@@H](C)C(=O)OC(C)(C)C)nc1 [Example 170, tert-butyl N-{5-[({5-[(5-cyanopyridin-2-yl)amino]-3-methyl-1,2-thiazol-4-yl}carbonyl)amino]pyridin-2-yl}alaninate]
15 | 7.6 µM | Cc1nsc(Nc2cnc3ccccc3n2)c1C(=O)Nc1cccc(C(=O)N2CCNCC2)c1 [Example 101, 3-Methyl-N-[3-(piperazin-1-ylcarbonyl)phenyl]-5-(quinoxalin-2-ylamino)-1,2-thiazole-4-carboxamide]
16 | > 20 µM | Cc1nsc(Nc2cnc(C(F)(F)F)cn2)c1C(=O)Nc1ccc(OC[C@@H]2CCN(CC(F)(F)F)C2)nc1 [Example 128, 3-Methyl-N-(6-{[(3R)-1-(2,2,2-trifluoroethyl)pyrrolidin-3-yl]methoxy}pyridin-3-yl)-5-{[5-(trifluoromethyl)pyrazin-2-yl]amino}-1,2-thiazole-4-carboxamide]
17 | > 20 µM | CCCN1CC[C@H](Oc2ccc(NC(=O)c3c(C)nsc3Nc3cnc(C(F)(F)F)cn3)cn2)[C@H](F)C1 [Example 147, N-(6-{[(3R,4S)-3-fluoro-1-propylpiperidin-4-yl]oxy}pyridin-3-yl)-3-methyl-5-{[5-(trifluoromethyl)pyrazin-2-yl]amino}-1,2-thiazole-4-carboxamide]
18 | > 20 µM | Cc1nsc(Nc2cnc(C(F)(F)F)cn2)c1C(=O)Nc1ccc(O[C@@H]2CCN(CC(F)(F)F)C[C@@H]2F)nc1 [Example 138, N-(6-{[(3S,4R)-3-fluoro-1-(2,2,2-trifluoroethyl)piperidin-4-yl]oxy}pyridin-3-yl)-3-methyl-5-{[5-(trifluoromethyl)pyrazin-2-yl]amino}-1,2-thiazole-4-carboxamide]
19 | > 20 µM | Cc1nsc(Nc2cnc(C(F)(F)F)cn2)c1C(=O)Nc1ccc(C(=O)NC2CCN(CC(F)(F)F)CC2)cc1 [Example 165, 3-methyl-N-(4-{[1-(2,2,2-trifluoroethyl)piperidin-4-yl]carbamoyl}phenyl)-5-{[5-(trifluoromethyl)pyrazin-2-yl]amino}-1,2-thiazole-4-carboxamide]
20 | ≥ 20 µM | Cc1nsc(Nc2cnc(C(F)(F)F)cn2)c1C(=O)Nc1ccc(F)c(OCC2CCCN(CC(F)F)C2)c1 (stereo not drawn) [Example 335, N-(3-{[1-(2,2-difluoroethyl)piperidin-3-yl]methoxy}-4-fluorophenyl)-3-methyl-5-{[5-(trifluoromethyl)pyrazin-2-yl]amino}-1,2-thiazole-4-carboxamide]
21 | > 20 µM | COc1ccc(NC(=O)c2c(C)nsc2Nc2ccc(C#N)cn2)c(N2CCOCC2)n1 [Example 173, 5-[(5-cyanopyridin-2-yl)amino]-N-[6-methoxy-2-(morpholin-4-yl)pyridin-3-yl]-3-methyl-1,2-thiazole-4-carboxamide]
22 | > 20 µM | Cc1nsc(Nc2cnc3cc(F)ccc3n2)c1C(=O)Nc1ccc(S(N)(=O)=O)cc1 [Example 149, 5-[(6-fluoroquinoxalin-2-yl)amino]-3-methyl-N-(4-sulfamoylphenyl)-1,2-thiazole-4-carboxamide]
23 | ≥ 20 µM | Cc1nsc(Nc2cnc3ccccc3n2)c1C(=O)Nc1cccc(-c2nnc(C(C)(C)C)o2)c1 [Example 107, N-[3-(5-tert-Butyl-1,3,4-oxadiazol-2-yl)phenyl]-3-methyl-5-(quinoxalin-2-ylamino)-1,2-thiazole-4-carboxamide]
24 | ≥ 20 µM | Cc1nsc(Nc2cnc(C(F)(F)F)cn2)c1C(=O)Nc1ccc(OCC2CCN(CCC(F)(F)F)C2)nc1 (stereo not drawn) [Example 124, 3-methyl-5-{[5-(trifluoromethyl)pyrazin-2-yl]amino}-N-(6-{[1-(3,3,3-trifluoropropyl)pyrrolidin-3-yl]methoxy}pyridin-3-yl)-1,2-thiazole-4-carboxamide]
